Assay results taken from the supplement of paper PMC10307832.

Assays:
Experiment in all cases: relative viability (nuclei count vs DMSO), 5 days (fraction); higher = more cells survive
Dabrafenib + Bortezomib = compound: CC(C)(C)c1nc(-c2cccc(NS(=O)(=O)c3c(F)cccc3F)c2F)c(-c2ccnc(N)n2)s1 [Dabrafenib] + CC(C)C[C@H](NC(=O)[C@H](Cc1ccccc1)NC(=O)c1cnccn1)B(O)O [Bortezomib] (partner 0.002 µM)
Summary of the method: (§1)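 Medians of duplicate plates are given as relative viability. That measure is the nuclei count in treated wells divided by the count in vehicle wells. Counts were taken on 4× images of lung cancer cell lines in 1536-well plates, 5 days after pin-tool dosing the day after seeding with one drug alone or a fixed anchor-drug dose plus five library-drug doses (not always all listed) in √10 steps.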

Dabrafenib + Dasatinib = compound: CC(C)(C)c1nc(-c2cccc(NS(=O)(=O)c3c(F)cccc3F)c2F)c(-c2ccnc(N)n2)s1 [Dabrafenib] + Cc1nc(Nc2ncc(C(=O)Nc3c(C)cccc3Cl)s2)cc(N2CCN(CCO)CC2)n1 [Dasatinib] (partner 0.075 µM)
Summary of the method: as §1

VX-702 + Trametinib = compound: NC(=O)c1ccc(N(C(N)=O)c2c(F)cccc2F)nc1-c1ccc(F)cc1F [VX-702] + CC(=O)Nc1cccc(-n2c(=O)n(C3CC3)c(=O)c3c(Nc4ccc(I)cc4F)n(C)c(=O)c(C)c32)c1 [Trametinib] (partner 0.02 µM)
Summary of the method: as §1

VX-702 + Foretinib = compound: NC(=O)c1ccc(N(C(N)=O)c2c(F)cccc2F)nc1-c1ccc(F)cc1F [VX-702] + COc1cc2c(Oc3ccc(NC(=O)C4(C(=O)Nc5ccc(F)cc5)CC4)cc3F)ccnc2cc1OCCCN1CCOCC1 [Foretinib] (partner 0.25 µM)
Summary of the method: as §1

Cell Line	relative viability (Dabrafenib + Bortezomib; first compound 0.003 µM)	relative viability (Dabrafenib + Bortezomib; first compound 0.009487 µM)	relative viability (Dabrafenib + Bortezomib; first compound 0.03 µM)	relative viability (Dabrafenib + Bortezomib; first compound 0.09487 µM)	relative viability (Dabrafenib + Bortezomib; first compound 0.3 µM)	relative viability (Dabrafenib + Dasatinib; first compound 0.003 µM)	relative viability (Dabrafenib + Dasatinib; first compound 0.009487 µM)	relative viability (Dabrafenib + Dasatinib; first compound 0.03 µM)	relative viability (Dabrafenib + Dasatinib; first compound 0.09487 µM)	relative viability (Dabrafenib + Dasatinib; first compound 0.3 µM)	relative viability (VX-702 + Trametinib; first compound 0.02 µM)	relative viability (VX-702 + Trametinib; first compound 0.2 µM)	relative viability (VX-702 + Trametinib; first compound 0.6325 µM)	relative viability (VX-702 + Trametinib; first compound 2 µM)	relative viability (VX-702 + Foretinib; first compound 0.02 µM)	relative viability (VX-702 + Foretinib; first compound 0.2 µM)	relative viability (VX-702 + Foretinib; first compound 0.6325 µM)	relative viability (VX-702 + Foretinib; first compound 2 µM)
NCI-H2085	1.03	1.13	0.896	0.976	1.04	0.246	0.28	0.216	0.288	0.188	0.547	0.537	0.588	0.374	1.05	0.898	0.967	0.968
NCI-H460	1.28	1.06	1.14	1.05	1.08	0.43	0.529	0.615	0.509	0.571	0.209	0.172	0.166	0.0854	1.06	0.998	1.12	1.08
NCI-H1755	0.972	0.924	0.908	0.914	0.903	0.419	0.38	0.405	0.403	0.337	0.841	0.799	0.838	0.869	0.93	0.952	0.807	0.944
PC-14	0.968	0.846	0.817	0.919	1.03	0.276	0.297	0.271	0.251	0.281	0.781	0.693	0.825	0.925	1.02	0.956	0.986	1.08
201T	1.08	1.07	1.06	1.11	1.1	0.606	0.541	0.57	0.497	0.54	0.733	0.756	0.744	0.774	0.943	0.987	1.05	1.07
COR-L 105	0.721	0.843	0.69	0.738	0.895	0.316	0.39	0.366	0.373	0.368	0.472	0.437	0.395	0.42	1.02	0.838	1.14	1.3
A-427		0.969	0.939	0.821	0.987		0.77	0.594	0.51	0.627	0.752	0.707	0.687	0.724	1.06	1.03	0.97	1.08
NCI-H1734		0.936	0.549	0.757	0.828		0.478	0.454	0.313	0.387	0.734	0.683	0.544	0.68	0.791	0.729	0.704	0.813
LOU-NH91		0.457	0.524	0.456	0.497	0.41	0.573	0.582	0.49	0.568	0.828	0.763	0.768	0.743	0.94	0.973	0.994	0.704
NCI-H2009	0.342	1.06	0.907	0.554	0.517	0.228	0.308	0.268	0.209	0.224	0.284	0.28	0.255	0.272	1.28	1.28	1.28	1.38
HCC-15	1.06	0.971	0.997	0.891	0.814	0.597	0.665	0.775	0.651	0.754	0.345	0.364	0.322	0.294	0.952	0.915	0.99	0.793
NCI-H727		0.848	0.882	0.795	0.873		0.479	0.434		0.568	0.387	0.381	0.382	0.359	0.936	0.806	0.824	0.813
EPLC-272H		0.945	0.954	0.631	1.18	0.281	0.443	0.399	0.344	0.33	0.296	0.279	0.279	0.273	0.6	0.659	0.667	0.817
SW 1573	1.11	1.16	1.13	0.996	1.17	0.263	0.557	0.457	0.279	0.379	0.569	0.467	0.473	0.649	1.05	0.876	0.784	0.679
LXF-289	0.949	1.01	1.18	0.969	1.13	0.175	0.2	0.211	0.195	0.192	0.718	0.648	0.691	0.703	1.04	0.962	0.958	0.98
